Measured values taken from ChEMBL document CHEMBL5705896 (ACS Chem Biol, 2013).
Activity calls are given as the source filed them. No cut-off for these calls is given here.

Legend:
[1] = Inhibition of full length human N-terminal his tagged ABL (2 to 1130 end residues) expressed in baculovirus expression system using ABLtide as substrate at 10 uM by mobility shift assay relative to control; settings: condition weaver syndrome
[2] = molecular target: Epidermal growth factor receptor (Homo sapiens) (UniProt P00533); experiment: Inhibition of human cytoplasmic domain N-terminal GST tagged EGFR (669 to 1210 end residues) expressed in baculovirus expression system using Srctide as substrate at 10 uM by mobility shift assay relative to control
[3] = molecular target: Tyrosine-protein kinase receptor TYRO3 (Homo sapiens) (UniProt Q06418); experiment: Inhibition of human cytoplasmic domain N-terminal GST tagged TYRO3 (453 to 890 end residues) expressed in baculovirus expression system using CSKtide as substrate at 10 uM by mobility shift assay relative to control
[4] = molecular target: RAC-alpha serine/threonine-protein kinase (Homo sapiens) (UniProt P31749); experiment: Inhibition of human catalytic domain N-terminal GST tagged AKT1 (104 to 480 end residues) expressed in baculovirus expression system using crosstide as substrate at 10 uM by mobility shift assay relative to control
[5] = molecular target: AMP-activated protein kinase (AMPK) alpha-1/beta-1/gamma-1 (Homo sapiens) (UniProt P54619+Q9Y478+Q13131); experiment: Inhibition of full length human N-terminal GST tagged AMPK alpha1(1 to 550 end residues)/beta1 (1 to 270 end residues)/gamma1 (1 to 331 end residues) expressed in baculovirus expression system using SAMS peptide as substrate at 10 uM by mobility shift assay relative to control
[6] = molecular target: Death-associated protein kinase 1 (Homo sapiens) (UniProt P53355); experiment: Inhibition of human catalytic domain N-terminal GST tagged DAPK1 (1 to 289 residues) expressed in baculovirus expression system using DAPK1tide as substrate at 10 uM by mobility shift assay relative to control
Sequence of Death-associated protein kinase 1 (Homo sapiens) (P53355 whole entry, looked up, the tested form may be a part): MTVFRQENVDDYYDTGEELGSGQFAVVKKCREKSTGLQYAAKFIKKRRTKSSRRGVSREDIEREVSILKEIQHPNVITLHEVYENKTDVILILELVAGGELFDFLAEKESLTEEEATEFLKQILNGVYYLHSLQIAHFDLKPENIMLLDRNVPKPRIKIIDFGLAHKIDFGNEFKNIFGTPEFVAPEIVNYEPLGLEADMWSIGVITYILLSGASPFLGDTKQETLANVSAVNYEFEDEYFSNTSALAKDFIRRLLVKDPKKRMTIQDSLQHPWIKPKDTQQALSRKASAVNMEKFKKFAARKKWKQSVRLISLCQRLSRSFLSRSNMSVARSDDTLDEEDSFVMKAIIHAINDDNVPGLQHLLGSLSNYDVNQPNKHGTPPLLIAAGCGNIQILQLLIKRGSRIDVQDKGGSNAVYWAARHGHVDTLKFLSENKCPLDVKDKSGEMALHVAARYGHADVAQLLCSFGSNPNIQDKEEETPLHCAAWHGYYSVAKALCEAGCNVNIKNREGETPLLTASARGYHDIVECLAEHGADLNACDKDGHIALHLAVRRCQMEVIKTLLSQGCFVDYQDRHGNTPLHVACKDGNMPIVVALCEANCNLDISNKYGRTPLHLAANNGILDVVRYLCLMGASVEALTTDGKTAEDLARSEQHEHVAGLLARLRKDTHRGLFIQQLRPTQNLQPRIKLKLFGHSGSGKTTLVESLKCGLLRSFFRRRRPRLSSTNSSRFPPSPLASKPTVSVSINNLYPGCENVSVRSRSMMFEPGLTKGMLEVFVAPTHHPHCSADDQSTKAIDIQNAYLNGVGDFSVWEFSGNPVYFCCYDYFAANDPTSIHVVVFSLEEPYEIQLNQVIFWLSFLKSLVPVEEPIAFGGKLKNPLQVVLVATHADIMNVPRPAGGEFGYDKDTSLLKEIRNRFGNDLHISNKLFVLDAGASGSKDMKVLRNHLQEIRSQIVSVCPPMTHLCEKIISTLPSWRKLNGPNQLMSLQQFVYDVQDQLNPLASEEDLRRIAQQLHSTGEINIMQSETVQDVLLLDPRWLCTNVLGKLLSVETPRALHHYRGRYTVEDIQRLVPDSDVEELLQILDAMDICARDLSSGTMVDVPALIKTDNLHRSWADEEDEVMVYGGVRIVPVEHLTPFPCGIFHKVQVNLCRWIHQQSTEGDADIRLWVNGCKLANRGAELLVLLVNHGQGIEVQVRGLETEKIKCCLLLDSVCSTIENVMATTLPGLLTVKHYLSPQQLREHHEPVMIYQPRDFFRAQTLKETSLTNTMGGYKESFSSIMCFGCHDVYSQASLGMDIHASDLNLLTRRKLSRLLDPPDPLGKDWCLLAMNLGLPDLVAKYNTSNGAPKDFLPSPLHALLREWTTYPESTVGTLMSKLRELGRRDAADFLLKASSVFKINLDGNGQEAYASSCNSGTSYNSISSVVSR

[7] = molecular target: Inhibitor of nuclear factor kappa-B kinase subunit beta (Homo sapiens) (UniProt O14920); experiment: Inhibition of truncated human N-terminal his-tagged IKK beta (1 to 662 residues) expressed in baculovirus expression system using modified IkappaB-alpha derived peptide as substrate at 10 uM by mobility shift assay relative to control
[8] = molecular target: Serine/threonine-protein kinase PAK 2 (Homo sapiens) (UniProt Q13177); experiment: Inhibition of full length human N-terminal GST tagged PAK2 (1 to 524 end residues) expressed in baculovirus expression system using DAPK1tide as substrate at 10 uM by mobility shift assay relative to control
[9] = molecular target: Protein kinase C alpha type (Homo sapiens) (UniProt P17252); experiment: Inhibition of full length human N-terminal GST tagged PKC alpha (1 to 672 end residues) expressed in baculovirus expression system using PKC as peptide at 10 uM by mobility shift assay relative to control
[10] = molecular target: Rho-associated protein kinase 1 (Homo sapiens) (UniProt Q13464); experiment: Inhibition of human catalytic domain N-terminal GST tagged ROCK1 (1 to 477 residues) expressed in baculovirus expression system using LIMKtide as substrate at 10 uM by mobility shift assay relative to control
[11] = molecular target: Testis-specific serine/threonine-protein kinase 1 (Homo sapiens) (UniProt Q9BXA7); experiment: Inhibition of full length human N-terminal GST tagged TSSK1 (1 to 367 end residues) expressed in baculovirus expression system using GS as peptide at 10 uM by mobility shift assay relative to control
[12] = molecular target: 5-hydroxytryptamine receptor 1A (Homo sapiens) (UniProt P08908); experiment: Inhibition of 5-HT1A receptor (unknown origin) at 10 uM by radioligand binding assay relative to control
[13] = molecular target: 5-hydroxytryptamine receptor 1D (Homo sapiens) (UniProt P28221); experiment: Inhibition of 5-HT1D receptor (unknown origin) at 10 uM by radioligand binding assay relative to control
[14] = molecular target: 5-hydroxytryptamine receptor 1E (Homo sapiens) (UniProt P28566); experiment: Inhibition of 5-HT1E receptor (unknown origin) at 10 uM by radioligand binding assay relative to control
[15] = molecular target: 5-hydroxytryptamine receptor 2B (Homo sapiens) (UniProt P41595); experiment: Inhibition of 5-HT2B receptor (unknown origin) at 10 uM by radioligand binding assay relative to control
Sequence of 5-hydroxytryptamine receptor 2B (Homo sapiens) (P41595 whole entry): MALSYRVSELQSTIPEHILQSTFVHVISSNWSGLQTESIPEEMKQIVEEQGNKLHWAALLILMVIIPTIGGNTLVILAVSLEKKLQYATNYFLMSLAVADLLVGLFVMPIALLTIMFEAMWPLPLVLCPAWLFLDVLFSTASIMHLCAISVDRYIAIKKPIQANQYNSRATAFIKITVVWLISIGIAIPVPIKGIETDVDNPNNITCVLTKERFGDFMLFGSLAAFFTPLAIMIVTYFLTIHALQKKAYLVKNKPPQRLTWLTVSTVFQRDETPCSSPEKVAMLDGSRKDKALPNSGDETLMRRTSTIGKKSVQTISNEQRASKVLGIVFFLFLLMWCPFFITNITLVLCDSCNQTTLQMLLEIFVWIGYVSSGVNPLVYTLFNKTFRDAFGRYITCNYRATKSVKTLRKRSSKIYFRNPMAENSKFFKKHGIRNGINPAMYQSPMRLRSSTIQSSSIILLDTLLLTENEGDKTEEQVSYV

[16] = molecular target: Serotonin 3 (5-HT3) receptor (Homo sapiens) (UniProt P46098+A5X5Y0+O95264+Q70Z44+Q8WXA8); experiment: Inhibition of 5-HT3 receptor (unknown origin) at 10 uM by radioligand binding assay relative to control; assay type: protein-complex assay
[17] = molecular target: 5-hydroxytryptamine receptor 5A (Homo sapiens) (UniProt P47898); experiment: Inhibition of 5-HT5A receptor (unknown origin) at 10 uM by radioligand binding assay relative to control
[18] = molecular target: 5-hydroxytryptamine receptor 7 (Homo sapiens) (UniProt P34969); experiment: Inhibition of 5-HT7 receptor (unknown origin) at 10 uM by radioligand binding assay relative to control
Sequence of 5-hydroxytryptamine receptor 7 (Homo sapiens) (P34969 whole entry): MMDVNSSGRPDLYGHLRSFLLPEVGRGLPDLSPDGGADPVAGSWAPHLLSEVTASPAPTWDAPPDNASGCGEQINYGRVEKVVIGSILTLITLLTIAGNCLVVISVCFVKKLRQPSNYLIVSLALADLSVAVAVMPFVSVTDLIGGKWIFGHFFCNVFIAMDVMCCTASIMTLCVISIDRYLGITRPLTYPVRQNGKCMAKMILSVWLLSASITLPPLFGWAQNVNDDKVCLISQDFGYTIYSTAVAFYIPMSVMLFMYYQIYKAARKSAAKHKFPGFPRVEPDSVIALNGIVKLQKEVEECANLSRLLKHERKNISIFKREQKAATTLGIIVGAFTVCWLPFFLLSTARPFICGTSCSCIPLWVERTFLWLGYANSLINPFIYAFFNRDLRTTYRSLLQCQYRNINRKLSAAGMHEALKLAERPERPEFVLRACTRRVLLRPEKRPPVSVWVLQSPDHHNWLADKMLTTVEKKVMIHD

[19] = molecular target: Alpha-2C adrenergic receptor (Homo sapiens) (UniProt P18825); experiment: Inhibition of Alpha2C receptor (unknown origin) at 10 uM by radioligand binding assay relative to control
[20] = molecular target: Beta-2 adrenergic receptor (Homo sapiens) (UniProt P07550); experiment: Inhibition of Beta2 receptor (unknown origin) at 10 uM by radioligand binding assay relative to control
Homo sapiens = species: Homo sapiens; experiment: Inhibition of BZP (unknown origin) at 10 uM by radioligand binding assay relative to control
[21] = molecular target: Sodium-dependent dopamine transporter (Homo sapiens) (UniProt Q01959); experiment: Inhibition of DAT (unknown origin) at 10 uM by radioligand binding assay relative to control
Sequence of Sodium-dependent dopamine transporter (Homo sapiens) (Q01959 whole entry): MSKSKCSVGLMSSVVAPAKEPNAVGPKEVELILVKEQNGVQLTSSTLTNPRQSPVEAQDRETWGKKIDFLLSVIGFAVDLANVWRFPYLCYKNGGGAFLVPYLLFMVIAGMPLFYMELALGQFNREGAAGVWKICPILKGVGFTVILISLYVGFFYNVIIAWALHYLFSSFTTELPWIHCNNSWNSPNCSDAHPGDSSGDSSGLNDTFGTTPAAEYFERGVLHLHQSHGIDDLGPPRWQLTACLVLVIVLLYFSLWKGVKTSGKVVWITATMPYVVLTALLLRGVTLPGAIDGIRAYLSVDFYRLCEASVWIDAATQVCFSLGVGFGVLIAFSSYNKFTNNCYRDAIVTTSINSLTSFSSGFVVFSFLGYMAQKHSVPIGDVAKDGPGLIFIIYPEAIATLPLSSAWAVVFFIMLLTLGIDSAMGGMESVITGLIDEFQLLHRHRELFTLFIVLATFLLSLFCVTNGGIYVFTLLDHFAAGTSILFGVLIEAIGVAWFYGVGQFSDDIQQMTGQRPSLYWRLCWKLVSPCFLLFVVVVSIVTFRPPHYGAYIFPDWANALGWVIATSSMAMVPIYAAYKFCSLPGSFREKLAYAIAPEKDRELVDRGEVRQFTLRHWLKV

[22] = molecular target: Muscarinic acetylcholine receptor M4 (Homo sapiens) (UniProt P08173); experiment: Inhibition of M4 receptor (unknown origin) at 10 uM by radioligand binding assay relative to control
[23] = molecular target: Histone-lysine N-methyltransferase EHMT2 (Homo sapiens, UniProt Q96KQ7); experiment: Inhibition of G9a (unknown origin) using [3H-SAM] as substrate incubated for 1 hr by scintillation proximity assay
[24] = molecular target: Histone-lysine N-methyltransferase SUV39H2 (Homo sapiens, UniProt Q9H5I1); experiment: Inhibition of SUV39H2 (unknown origin) using [3H-SAM] as substrate incubated for 1 hr by scintillation proximity assay
Sequence of Histone-lysine N-methyltransferase SUV39H2 (Q9H5I1 whole entry): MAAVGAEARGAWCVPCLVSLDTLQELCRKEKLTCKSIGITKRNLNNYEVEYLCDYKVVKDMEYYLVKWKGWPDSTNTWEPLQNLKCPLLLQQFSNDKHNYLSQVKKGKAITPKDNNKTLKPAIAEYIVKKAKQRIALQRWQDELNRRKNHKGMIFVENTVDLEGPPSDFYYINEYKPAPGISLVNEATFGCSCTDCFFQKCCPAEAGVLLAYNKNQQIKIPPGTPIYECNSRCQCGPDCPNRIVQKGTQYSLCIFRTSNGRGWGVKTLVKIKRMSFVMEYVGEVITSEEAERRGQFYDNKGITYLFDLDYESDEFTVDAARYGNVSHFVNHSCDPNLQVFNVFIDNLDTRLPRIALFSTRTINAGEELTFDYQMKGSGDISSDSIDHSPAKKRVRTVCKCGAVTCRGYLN

[25] = molecular target: Protein arginine N-methyltransferase 3 (Homo sapiens, UniProt O60678); experiment: Inhibition of PRMT3 (unknown origin) using [3H-SAM] as substrate incubated for 1 hr by scintillation proximity assay
Sequence of Protein arginine N-methyltransferase 3 (O60678 whole entry): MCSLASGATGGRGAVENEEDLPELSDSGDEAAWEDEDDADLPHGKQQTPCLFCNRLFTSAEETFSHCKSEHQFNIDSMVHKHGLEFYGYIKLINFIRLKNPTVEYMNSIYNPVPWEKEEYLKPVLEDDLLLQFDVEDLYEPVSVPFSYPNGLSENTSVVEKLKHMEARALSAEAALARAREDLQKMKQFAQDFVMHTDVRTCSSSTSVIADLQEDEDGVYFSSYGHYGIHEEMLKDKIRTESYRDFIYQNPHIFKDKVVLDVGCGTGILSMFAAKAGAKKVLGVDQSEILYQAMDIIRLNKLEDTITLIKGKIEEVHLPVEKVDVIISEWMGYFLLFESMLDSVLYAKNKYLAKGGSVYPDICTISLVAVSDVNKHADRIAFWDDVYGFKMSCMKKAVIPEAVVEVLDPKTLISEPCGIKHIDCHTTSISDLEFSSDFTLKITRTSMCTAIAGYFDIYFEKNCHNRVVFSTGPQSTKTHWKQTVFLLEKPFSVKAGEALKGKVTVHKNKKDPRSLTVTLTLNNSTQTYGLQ

[26] = molecular target: Histone-lysine N-methyltransferase KMT5B (Homo sapiens, UniProt Q4FZB7); experiment: Inhibition of SUV420H1 (unknown origin) using [3H-SAM] as substrate incubated for 1 hr by scintillation proximity assay
Sequence of Histone-lysine N-methyltransferase KMT5B (Q4FZB7 whole entry): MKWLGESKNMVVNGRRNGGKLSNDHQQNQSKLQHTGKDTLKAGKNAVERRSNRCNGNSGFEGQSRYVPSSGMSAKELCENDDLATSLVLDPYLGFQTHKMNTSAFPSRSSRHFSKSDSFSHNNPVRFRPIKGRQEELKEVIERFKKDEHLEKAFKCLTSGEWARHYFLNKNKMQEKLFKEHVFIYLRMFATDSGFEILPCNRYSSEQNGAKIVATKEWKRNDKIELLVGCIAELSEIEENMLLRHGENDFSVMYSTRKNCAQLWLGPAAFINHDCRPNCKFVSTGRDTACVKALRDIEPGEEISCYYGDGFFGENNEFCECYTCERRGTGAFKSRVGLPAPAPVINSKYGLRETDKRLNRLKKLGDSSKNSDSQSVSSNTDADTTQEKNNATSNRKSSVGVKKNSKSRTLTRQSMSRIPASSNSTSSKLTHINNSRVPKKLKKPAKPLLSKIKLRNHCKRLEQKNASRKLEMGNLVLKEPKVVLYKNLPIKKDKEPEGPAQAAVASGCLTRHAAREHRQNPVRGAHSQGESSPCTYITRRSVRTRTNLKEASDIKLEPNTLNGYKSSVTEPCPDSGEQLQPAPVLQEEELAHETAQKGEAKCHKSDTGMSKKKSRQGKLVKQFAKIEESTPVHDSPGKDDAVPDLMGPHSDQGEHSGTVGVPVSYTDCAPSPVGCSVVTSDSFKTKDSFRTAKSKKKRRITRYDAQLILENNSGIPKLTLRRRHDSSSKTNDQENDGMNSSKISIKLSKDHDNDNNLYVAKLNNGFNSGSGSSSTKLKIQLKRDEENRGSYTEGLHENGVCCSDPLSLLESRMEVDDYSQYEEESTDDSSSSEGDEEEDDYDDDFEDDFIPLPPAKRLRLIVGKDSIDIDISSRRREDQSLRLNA

[27] = molecular target: Histone-lysine N-methyltransferase SETDB1 (Homo sapiens, UniProt Q15047); experiment: Inhibition of SETDB1 (unknown origin) using [3H-SAM] as substrate incubated for 1 hr by scintillation proximity assay
DB = experiment: Downregulation of H3K27me3 level in human DB cells at 3000 nM measured after 3 days; assay type: functional, cell-based; settings: time 3.0 day

CCCc1cc(C)[nH]c(=O)c1CNC(=O)c1cc(-c2ccc(N3CCN(C(C)C)CC3)nc2)cc2c1cnn2C(C)C
inhibition at 10 µM [1]: -4% | inhibition [2]: -3% | inhibition [3]: -1% | inhibition [4]: -6% | inhibition [5]: -3% | inhibition [6]: -4% | inhibition [7]: -3% | inhibition [8]: 4% | inhibition [9]: -4% | inhibition [10]: 5% | inhibition [11]: 5% | inhibition [12]: 11% | inhibition [13]: 50% | inhibition [14]: 2% | inhibition [15]: -9% | inhibition [16]: 12% | inhibition [17]: 10% | inhibition [18]: -4% | inhibition [19]: 47% | inhibition [20]: 14% | inhibition (Homo sapiens): -6% | inhibition [21]: 36% | inhibition [22]: 21% | IC50 [23]: > 100 µM | IC50 [24]: > 100 µM | IC50 [25]: > 100 µM | IC50 [26]: > 100 µM | IC50 [27]: > 100 µM | Activity (DB): Active
